Data taken from patent publication US6083981A, “Sulfonamide substituted aspartic acid interleukin-1β converting enzyme inhibitors” (Warner-Lambert Company, priority 1999, dated 2000).

Experiments:
ICE [1] = target: T1, ICE (Homo sapiens, UniProt P29466); test: ICE inhibition, fluorometric Ki (Ac-Tyr-Val-Ala-Asp-AMC substrate); format: biochemical; conditions: 0.24 nM ICE, 15 μM Ac-Tyr-Val-Ala-Asp-AMC, reversible competitive model
T1 sequence (P29466 120-297 limits assumed): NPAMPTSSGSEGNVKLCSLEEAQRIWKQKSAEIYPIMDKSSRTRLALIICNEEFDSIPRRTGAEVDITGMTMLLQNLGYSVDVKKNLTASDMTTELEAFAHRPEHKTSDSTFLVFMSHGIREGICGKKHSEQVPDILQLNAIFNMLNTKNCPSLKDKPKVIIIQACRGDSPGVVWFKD
T1 sequence (P29466 317-404 limits assumed): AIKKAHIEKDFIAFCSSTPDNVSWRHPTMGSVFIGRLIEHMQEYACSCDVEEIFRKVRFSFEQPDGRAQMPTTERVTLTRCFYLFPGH
Method: Substrate hydrolysis is monitored for 300 seconds by observing the fluorescence of released AMC using excitation at 380 nm and emission at 460 nm. Mean rates of substrate hydrolysis are evaluated by linear-regression analysis of the fluorescence vs time traces.

ICE [2] = target: T1, ICE; test: ICE Colorimetric Dose-Response (IC50) Assay; format: biochemical; conditions: 24 nM ICE, 60 min preincubation, 50 μM Ac-Tyr-Val-Ala-Asp-pNA, pH 7.5, 25° C
Method: Aliquots of each dilution are transferred to a microtitre plate in triplicate.
(§1) ICE enzyme is diluted to approximately 24 nM in HGE buffer (100 mM Hepes pH 7.5, 0.5 mM EDTA, 20% glycerol, 0.1% Bovine Serum Albumin (BSA), and activated by adding dithiothreitol (DTT) to a final concentration of 5 mM. The activated enzyme is then aliquoted into wells containing inhibitor or vehicle, and the plate is preincubated for 60 minutes at ambient temperature. Substrate (Ac--Tyr--Val--Ala--Asp--pNA) is added to each well to a final concentration of 50 μM, and plates are placed in the microtitre plate-reader thermostated to 25° C. Beginning 5 minutes after addition of substrate, absorbance (405 nm) of wells is monitored for 1 hour, and activity is calculated as the mean rate of change in absorbance during this interval.

[3] = test system: IL-1β production in human peripheral blood mononuclear cells (PBMCs); test: PBMC Cellular Assay, inhibition of LPS-stimulated IL-1β production; format: cell-based; conditions: mature IL-1β by ELISA, 10 ng/mL LPS overnight, 2% human AB serum
Excerpt: (§2) Further evidence that compounds of Formula I, II, and III are inhibitors of ICE is provided by their ability to inhibit IL-1β production in human peripheral blood mononuclear cells (PBMCs) as described herein. PBMCs are isolated from heparinized blood by centrifugation over a ficoll cushion, then washed three times with phosphate-buffered saline. PBMCs are suspended in a medium containing RPMI 1640 with glutamine, penicillin, streptomycin, and 2% human AB serum, then plated at 10^6 cells per well in 96 well flat bottom plates. PBMCs are stimulated overnight with 10 ng/mL of lipopolysaccharide (LPS, E. Coli strain 0111:B4; Calbiochem) in the presence or absence of a compound of Formula I. Medium is harvested and the level of mature IL-1β was determined using an ELISA kit from R & D Systems. Compound inhibition is assessed by determining the concentration of agent which reduces IL-1β levels by 50%. Cells were cultured for an additional four hours in the presence of 3-(4,5-dimethylthiazol-2-yl)-2,5-diphenyltetrazolium bromide (MTT) to determine viability. Compound toxicity can, therefore, be assessed by determining the concentration of agent which kills 50% of the cells (IC50).

[4] = test system: human peripheral blood mononuclear cells (PBMCs); test: PBMC viability (MTT), compound toxicity; format: cell-based
Excerpt: as §2

Ich-2 (Caspase-4) = target: T2, Ich-2 (Caspase-4) (Homo sapiens, UniProt P49662); test: Ich-2 (Caspase-4) Colorimetric Dose-Response (IC50) Assay; format: biochemical; conditions: 64 nM enzyme, 60 μM Ac-Leu-Glu-Val-Asp-pNA
T2 sequence (P49662 81-270 limits assumed): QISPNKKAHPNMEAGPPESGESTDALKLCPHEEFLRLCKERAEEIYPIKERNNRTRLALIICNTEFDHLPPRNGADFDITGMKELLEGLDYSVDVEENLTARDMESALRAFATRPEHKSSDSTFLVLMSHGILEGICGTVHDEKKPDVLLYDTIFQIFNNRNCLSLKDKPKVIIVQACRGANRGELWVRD
T2 sequence (P49662 290-377 limits assumed): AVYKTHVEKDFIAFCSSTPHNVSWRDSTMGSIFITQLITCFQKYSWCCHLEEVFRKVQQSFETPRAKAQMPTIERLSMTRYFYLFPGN
Method: as §1
Inhibition of Ich-2 enzyme is assayed as described above for ICE, except that enzyme is used at 64 nM, and 60 μM of the Ich-2-specific substrate Ac--Leu--Glu--Val--Asp--pNA is used instead of the ICE substrate Ac--Tyr--Val--Ala--Asp--pNA.

[5] = PBMC viability (MTT), compound toxicity; format: cell-based; conditions: human, MTT viability, additional four hours, concentration which kills 50% of the cells, read-out: PBMC TC50
Excerpt: as §2

Compound | Ki (ICE [1]) | IC50 (ICE [2]) | IC50 [3] | CC50 [4] | IC50 (Ich-2 (Caspase-4)) | IC50 ([3]; PBMC) | CC50 [5]
3-(2-Sec-Butoxy-Benzenesulfonylamino)-4-Oxo-Butyric Acid [Example 27] | 3.9 µM | 35 µM | > 100 µM | > 100 µM | 118 µM | – | –
O=CC(CC(=O)O)NS(=O)(=O)c1ccccc1Oc1ccc2c(c1)CCCC2 (stereo not shown) [Example 16, 4-Oxo-3-[2-(5,6,7,8-Tetrahydro-Naphthalen-2-Yloxy)-Benzenesulfonylamino]-Butyric Acid] | 1.3 µM | 5.8 µM | – | – | 42 µM | 65 µM | > 100 µM
CCc1ccccc1Oc1ccccc1S(=O)(=O)NC(C=O)CC(=O)O (stereo not shown) [Example 18, 3-[2-(2-Ethyl-Phenoxy)-Benzenesulfonylamino]-4-Oxo-Butyric Acid] | 2 µM | 14 µM | – | – | 87 µM | 80 µM | > 100 µM
Cc1cccc(-c2ccccc2S(=O)(=O)NC(C=O)CC(=O)O)c1 (stereo not shown) [Example 35, 3-(3'-Methyl-Biphenyl-2-Sulfonylamino)-4-Oxo-Butyric Acid] | 31 µM | 37 µM | – | – | 341 µM | > 100 µM | > 100 µM
O=CC(CC(=O)O)NS(=O)(=O)c1ccccc1Oc1ccc2ccccc2c1Cl (stereo not shown) [Example 15, 3-[2-(1-Chloro-Naphthalen-2-Yloxy)-Benzenesulfonylamino]-4-Oxo-Butyric Acid] | 1 µM | 5.1 µM | – | – | 22 µM | 50 µM | > 100 µM
O=C[C@H](CC(=O)O)NS(=O)(=O)c1ccccc1-c1ccccc1 [Example 1, 3-(Biphenyl-2-Sulfoamino)-4-Oxo-Butyric Acid] | 1.6 µM | 20.3 µM | – | – | 88 µM | > 100 µM | > 100 µM
CC(C)COc1ccccc1S(=O)(=O)NC(C=O)CC(=O)O (stereo not shown) [Example 10, 3-(2-Isobutoxy-Benzenesulfonylamino)-4-Oxo-Butyric Acid] | 4.2 µM | 22 µM | – | – | 318 µM | 90 µM | > 100 µM
O=CC(CC(=O)O)NS(=O)(=O)c1ccccc1OCc1ccccc1 (stereo not shown) [Example 23, 3-(2-Benzyloxy-Benzenesulfonylamino)-4-Oxo-Butyric Acid] | 0.8 µM | 11 µM | – | – | 97 µM | 60 µM | > 100 µM
Cc1ccc(Oc2ccccc2)c(S(=O)(=O)NC(C=O)CC(=O)O)c1 (stereo not shown) [Example 44, 3-(5-Methyl-2-Phenoxy-Benzenesulfonylamino)-4-Oxo-Butyric Acid] | 2.2 µM | 41 µM | – | – | 199 µM | > 100 µM | > 100 µM
Cc1ccccc1Oc1c(C)cccc1S(=O)(=O)NC(C=O)CC(=O)O (stereo not shown) [Example 42, 3-[2-(2-Methylphenoxy)-3-Methylbenzenesulfonylamino]-4-Oxo-Butyric Acid] | 0.3 µM | 1.1 µM | – | – | 57 µM | 38 µM | > 100 µM
O=CC(CC(=O)O)NS(=O)(=O)c1ccccc1Oc1ccc2ccccc2c1 (stereo not shown) [Example 36, 3-[2-(Naphthalen-2-Yloxy)-Benzenesulfonylamino]-4-Oxo-Butyric Acid] | 0.13 µM | 3.5 µM | – | – | 28 µM | 50 µM | > 100 µM
O=CC(CC(=O)O)NS(=O)(=O)c1ccccc1OCCc1ccccc1 (stereo not shown) [Example 17, 4-Oxo-3-(2-Phenethyloxy-Benzenesulfonylamino)-Butyric Acid] | 0.9 µM | 9.2 µM | – | – | 63 µM | 55 µM | > 100 µM
Cc1cccc(Oc2ccccc2S(=O)(=O)NC(C=O)CC(=O)O)c1C (stereo not shown) [Example 24, 3-[2-(2,3-Dimethyl-Phenoxy)-Benzenesulfonylamino]-4-Oxo-Butyric Acid] | 1 µM | 13 µM | – | – | 122 µM | 73 µM | > 100 µM
O=CC(CC(=O)O)NS(=O)(=O)c1ccccc1Oc1ccc(-c2ccccc2)cc1 (stereo not shown) [Example 20, 3-[2-(Biphenyl-4-Yloxy)-Benzenesulfonylamino]-4-Oxo-Butyric Acid] | 0.3 µM | 4.4 µM | – | – | 17 µM | 40 µM | > 100 µM
CCC(CC)COc1ccccc1S(=O)(=O)NC(C=O)CC(=O)O (stereo not shown) [Example 29] | 0.3 µM | 8.6 µM | – | – | 215 µM | 75 µM | > 100 µM
Cc1ccccc1Oc1ccccc1S(=O)(=O)NC(C=O)CC(=O)O (stereo not shown) [Example 12, 4-Oxo-3-(2-o-Tolyloxy-Benzenesulfonylamino)-Butyric Acid] | 3 µM | 14 µM | – | – | 59 µM | 90 µM | > 100 µM
Cc1ccc(S(=O)(=O)NC(C=O)CC(=O)O)c(Oc2ccccc2)c1 (stereo not shown) [Example 45, 3-(4-Methyl-2-Phenoxy-Benzenesulfonylamino)-4-Oxo-Butyric Acid] | 18 µM | 1.7 µM | – | – | 14 µM | 70 µM | > 100 µM
CC(C)c1ccc(Oc2ccccc2S(=O)(=O)NC(C=O)CC(=O)O)cc1 (stereo not shown) [Example 6, 3-[2-(4-Isopropyl-Phenoxy)-Benzenesulfonylamino]-4-Oxo-Butyric Acid] | 0.54 µM | 5.3 µM | – | – | 6.1 µM | 23.5 µM | > 100 µM
O=CC(CC(=O)O)NS(=O)(=O)c1ccccc1Nc1ccccc1 (stereo not shown) [Example 40, 4-Oxo-3-[2-N-Phenyl-Benzenesulfonylamino]-Butyric Acid] | 10 µM | 44 µM | – | – | 370 µM | 95 µM | > 100 µM
Cc1cccc(S(=O)(=O)NC(C=O)CC(=O)O)c1Oc1ccc(C(C)C)cc1 (stereo not shown) [Example 41, 3-[2-(4-Isopropylphenoxy)-3-Methylbenzenesulfonylamino]-4-Oxo-Butyric Acid] | 1.5 µM | 12 µM | – | – | 9.2 µM | 45 µM | > 100 µM
